Where two headings read alike, the source gives them in different places.
Legend:
Type in all cases: cell-based, human
Chang cells [1] = test: MTT cytotoxicity assay, Chang; conditions: Homo sapiens, read-out: IC50 from MTT
Description: (§1) HepG2 and Chang cells were plated at 1 × 10^4 cells/well by adding 200 μL of a 5 × 10^4 cells/mL suspension to each well of a 96-well tissue culture plate. The plate was incubated for a sufficient time to assure attachment and 40% to 60% confluency. […] The last row was left as an untreated control. The plates were incubated at 37 °C, 5% CO2, for 24, 48 and 72 hours, respectively. After incubation with compounds, the media was aspirated off and replaced with fresh media. Then, MTT solution (20 μL) for a total volume of 200 μL was added in every well and incubated for 4 to 6 hours at 37 °C with 5% CO2. After that, MTT-containing medium was removed gently and replaced with DMSO (200 μL per well) to mix the formazan crystals until dissolved. The plates were read on microtiter plate reader at 570 nm. For each compound tested, the IC50 (concentration of drug needed to inhibit cell growth by 50%) is generated from the dose-response curves for each cell line.

HepG2 cells [2] = test: Cell cycle PI analysis by flow cytometry, HepG2
Description: The ability of a substance to affect specific phases of the cell cycle may provide clues as to its mechanism(s) of action. To determine the effects of goniothalamin on the cell cycle, HepG2 cells were treated with IC50 levels of goniothalamin (determined from the MTT assay) for 24, 48 and 72 hours, respectively. The cells were stained with PI and the DNA contents analyzed by flow cytometry.
(§2) The treated cells were trypsinized and washed with PBS. After centrifugation, the supernatant was removed. Then, 1 × 10^6 cells were harvested and fixed in ice-cold ethanol (70%). The fixed cells were centrifuged at high speed (180 × g) for 10 minutes to adequately pellet down the cells that were suspended in the ethanol. The pellet was washed by the ice-cold PBS and then centrifuged again at 180 × g for 10 minutes. The final pellet was resuspended with 1 mL of RNase and incubated at 37 °C for 30 minutes. At the end of incubation, DNA binding dye PI (1 mg/mL) was added to give a final concentration of 50 µg/mL. The mixture was incubated at room temperature for 10 min in the dark. Data acquisition and analysis were performed in by flow cytometry FACS Calibur flow cytometer (Becton Dickinson, Franklin Lakes, NJ, USA) using CellQuest 3.3 software.

HepG2 cells [3] = test: MTT cytotoxicity assay, HepG2; conditions: Homo sapiens, read-out: IC50 from MTT
Description: as §1

Chang cells [4] = test: Cell cycle PI analysis by flow cytometry, Chang
Description: The effect of goniothalamin on the cell cycle distribution of non-malignant Chang cells was also assessed. […] Accordingly, goniothalamin induced a marked apoptosis in a time-dependent manner at IC50 concentrations. As expected, the increase in the apoptotic population was associated with a concomitant enlargement of the pre-phase population, as observed in cell cycle analysis.
as §2

[5] = HepG2, 24h, at IC50 (goniothalamin 9.2 µM; doxorubicin 2.2 µM)
[6] = HepG2, 48h, at IC50 (goniothalamin 8.3 µM; doxorubicin 4.3 µM)
[7] = HepG2, 72h, at IC50 (goniothalamin 4.6 µM; doxorubicin […])
[8] = 24h, at IC50 (goniothalamin 79.10 µM; doxorubicin 0.83 µM)
[9] = 48h, at IC50 (goniothalamin 63.75 µM; doxorubicin 0.41 µM)
[10] = 72h, at IC50 (goniothalamin 35.01 µM; doxorubicin 0.28 µM)

COc1cccc2c1C(=O)c1c(O)c3c(c(O)c1C2=O)C[C@@](O)(C(=O)CO)C[C@@H]3O[C@H]1C[C@H](N)[C@H](O)[C@H](C)O1 [Doxorubicin, reference compound]
IC50 (Chang cells [1]; 24 h): 0.83 µM | IC50 (Chang cells [1]; 48 h): 0.41 µM | IC50 (Chang cells [1]; 72 h): 0.28 µM | G0/G1 (HepG2 cells [2]; [5]): 76.46 ± 3.80% | G2+M (HepG2 cells [2]; [5]): 11.64 ± 3.02% | S (HepG2 cells [2]; [5]): 8.54 ± 0.38% | SubG0/G1 (HepG2 cells [2]; [5]): 3.36 ± 1.02% | G0/G1 (HepG2 cells [2]; [6]): 65.17 ± 12.80% | S (HepG2 cells [2]; [6]): 15.15 ± 10.96% | SubG0/G1 (HepG2 cells [2]; [6]): 5.14 ± 2.53% | G0/G1 (HepG2 cells [2]; [7]): 60.64 ± 0.79% | G2+M (HepG2 cells [2]; [7]): 2.66 ± 0.37% | S (HepG2 cells [2]; [7]): 5.91 ± 0.15% | SubG0/G1 (HepG2 cells [2]; [7]): 30.79 ± 0.57% | IC50 (HepG2 cells [3]; HepG2, 24 h): 2.2 µM | IC50 (HepG2 cells [3]; HepG2, 48 h): 4.3 µM | IC50 (HepG2 cells [3]; HepG2, 72 h): 1.06 µM | G0/G1 (Chang cells [4]; [8]): 50.84 ± 6.03% | G2+M (Chang cells [4]; [8]): 16.36 ± 1.28% | S (Chang cells [4]; [8]): 22.09 ± 0.03% | SubG0/G1 (Chang cells [4]; [8]): 10.71 ± 7.28% | G0/G1 (Chang cells [4]; [9]): 62.43 ± 9.80% | G2+M (Chang cells [4]; [9]): 10.37 ± 0.21% | S (Chang cells [4]; [9]): 15.31 ± 3.10% | SubG0/G1 (Chang cells [4]; [9]): 11.89 ± 6.49% | G0/G1 (Chang cells [4]; [10]): 54.12 ± 1.52% | G2+M (Chang cells [4]; [10]): 8.63 ± 2.17% | S (Chang cells [4]; [10]): 15.19 ± 2.83% | SubG0/G1 (Chang cells [4]; [10]): 22.06 ± 5.17%

Source: paper PMC6260619, “Selective Cytotoxicity of Goniothalamin against Hepatoblastoma HepG2 Cells” (Molecules, 2011)
